Reference: PMC9000887, “Novel 1,2,3-Triazole-Coumarin Hybrid Glycosides and Their Tetrazolyl Analogues: Design, Anticancer Evaluation and Molecular Docking Targeting EGFR, VEGFR-2 and CDK-2” (Molecules, 2022)
Read-outs that look alike come from different tables or passages of the source. Values belong to the compound of their own block, whether it stands above or below them.

Assays:
[1] = tested on: human melanoma (A-375) cancer cell line; experiment: MTT cytotoxicity assay, A-375
Procedure: (§2) After 48 h incubation, the medium was aspirated and then 40 μL MTT salt (2.5 mg/mL) was added for a further 4 h. […] Doxorubicin was used as the positive control and 0.5% DMSO was used as the negative control.

[2] = tested on: human prostate (PC-3) cancer cell line; experiment: MTT cytotoxicity assay, PC-3
Procedure: as §2

[3] = tested on: human melanoma (Mel-501) cancer cell line; experiment: MTT cytotoxicity assay, Mel-501; conditions: for IC50: read-out: IC50 (Mean ± SEM) Mel-501
Procedure: as §2

[4] = tested on: human pancreatic (Paca-2) cancer cell line; experiment: MTT cytotoxicity assay, Paca-2
Procedure: as §2

[5] = tested on: human colon (Caco-2) cancer cell line; conditions: Caco-2, 100 µM
Procedure: as §2

EGFR = EGFR (Homo sapiens, UniProt P00533); experiment: In vitro kinase inhibitory assessment, EGFR (Kinase-Glo luminescence); format: biochemical; conditions: mean of three values; read-out: IC50 (Mean ± SEM) EGFR
EGFR, sequence (P00533 25-1210): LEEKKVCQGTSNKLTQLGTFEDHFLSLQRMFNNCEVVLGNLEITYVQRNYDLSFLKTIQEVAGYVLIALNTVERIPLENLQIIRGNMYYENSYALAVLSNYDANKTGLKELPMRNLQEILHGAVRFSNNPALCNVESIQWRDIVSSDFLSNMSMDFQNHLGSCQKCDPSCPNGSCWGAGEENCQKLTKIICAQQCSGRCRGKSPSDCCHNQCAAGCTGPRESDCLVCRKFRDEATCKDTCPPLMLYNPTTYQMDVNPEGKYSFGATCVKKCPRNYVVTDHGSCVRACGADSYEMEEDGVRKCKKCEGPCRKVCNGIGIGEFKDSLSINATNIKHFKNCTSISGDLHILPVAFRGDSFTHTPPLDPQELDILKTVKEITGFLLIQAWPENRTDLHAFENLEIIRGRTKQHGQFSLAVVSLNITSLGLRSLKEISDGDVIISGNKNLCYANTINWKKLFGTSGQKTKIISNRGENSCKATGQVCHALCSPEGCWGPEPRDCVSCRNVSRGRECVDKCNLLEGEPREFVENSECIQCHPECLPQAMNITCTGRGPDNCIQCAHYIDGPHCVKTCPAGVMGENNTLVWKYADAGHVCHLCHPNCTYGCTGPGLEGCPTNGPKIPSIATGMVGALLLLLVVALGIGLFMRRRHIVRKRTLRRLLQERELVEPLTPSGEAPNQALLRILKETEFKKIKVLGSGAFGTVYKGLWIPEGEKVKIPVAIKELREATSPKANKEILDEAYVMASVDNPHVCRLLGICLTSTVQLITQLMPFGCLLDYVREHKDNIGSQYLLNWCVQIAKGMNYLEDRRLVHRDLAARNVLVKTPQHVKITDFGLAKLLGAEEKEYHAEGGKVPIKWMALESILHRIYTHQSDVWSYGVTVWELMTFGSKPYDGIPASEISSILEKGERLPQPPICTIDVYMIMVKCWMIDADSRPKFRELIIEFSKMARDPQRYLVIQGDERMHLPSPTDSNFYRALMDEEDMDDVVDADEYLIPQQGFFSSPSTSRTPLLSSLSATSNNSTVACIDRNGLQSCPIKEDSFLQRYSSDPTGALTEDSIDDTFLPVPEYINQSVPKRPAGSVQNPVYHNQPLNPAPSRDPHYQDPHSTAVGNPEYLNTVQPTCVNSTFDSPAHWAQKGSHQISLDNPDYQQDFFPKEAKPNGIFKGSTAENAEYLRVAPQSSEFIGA

Caspase-7 = Caspase-7 protein level ELISA in Paca-2; format: cell-based, human; conditions: Paca-2, 24 h at IC50 (10.7 μM)
Procedure: The micro-ELISA plate provided in this kit was pre-coated with a Caspase-7-specific antibody. A biotinylated Caspase-7 antibody and Avidin–horseradish peroxidase (HRP) conjugate was added. The excess components were removed. The substrate solution was added. Wells containing Caspase-7, biotinylated detection antibody, and Avidin-HRP conjugate appeared blue in colour. The colour turned yellow following the addition of sulphuric acid solution. The optical density (OD) was measured at a wavelength of 450 ± 2 nm.

Paca-2 cells [6] = experiment: Cell cycle analysis by flow cytometry (PI staining); format: cell-based, human; conditions: Paca-2, 24 h at IC50 (10.7 μM)
Procedure: (§1) Apoptosis investigation and cell cycle analysis were elucidated by flow cytometry. Paca-2 cells were seeded at 8 × 10^4 and incubated at 37 °C in 5% CO2 overnight. […] For cell cycle analysis, cell pellets were fixed with 70% ethanol on ice for 15 min and collected again. The pellets were incubated with propidium iodide (PI) staining solution at room temperature for 1 h and analysed by a Gallios flow cytometer (Beckman Coulter, Brea, CA, USA). Apoptosis detection was carried out by FITC AnnexinV/PI commercial kit (Becton Dickenson, Franklin Lakes, NJ, USA) following the manufacturer’s protocol. The samples were analysed by fluorescence-activated cell sorting (FACS) with a Gallios flow cytometer (Beckman Coulter, Brea, CA, USA) within 1 h after staining. Data were analysed using Kaluza v 1.2 (Beckman Coulter, Brea, CA, USA).

Paca-2 cells [7] = experiment: Apoptosis detection, FITC Annexin V/PI flow cytometry; format: cell-based, human; conditions: Paca-2, 24 h at IC50 (10.7 μM); DMSO control 0.28%
Procedure: as §1

PD-1 = PD-1 protein level ELISA in Paca-2; format: cell-based, human; conditions: Paca-2, 24 h at IC50 (10.7 μM); untreated control 275.6 Pg/mL
Procedure: Samples or standards were added to the wells Human PD-1 eliza kit (ab252360 Human PD-1, Abcam, Cambridge, MA, USA), followed by the antibody mix. After incubation, the wells were washed to remove unbound material. TMB Development Solution was added and during incubation was catalysed by HRP, generating blue coloration. This reaction was then stopped by the addition of Stop Solution, completing any colour change from blue to yellow. The optical density (OD) was measured at a wavelength of 450 ± 2 nm.

Caspase-3 = Caspase-3 protein level ELISA in Paca-2; format: cell-based, human; conditions: Paca-2, 24 h at IC50 (10.7 μM)
Source text: The precoated micro-ELISA plate with an antibody specific to Caspase-3 was applied using the Human Caspase-3 ELISA Kit from Invitrogen INC. Catalog # KHO1091 (96 tests) (542 Flynn Road, Camarillo, CA, USA) according to the manufacturer’s instructions.

CDK-2/cyclin A2 = CDK-2/cyclin A2 (Homo sapiens, UniProt P24941); experiment: In vitro kinase inhibitory assessment, CDK-2/cyclin A2 (ELISA); format: biochemical; conditions: mean of three values; read-out: IC50 (Mean ± SEM) CDK-2/Cyclin A2
Procedure: Assay of CDK-2/cyclin A2 was achieved through ELISA using an affinity tag labelled capture antibody. Adding the samples and the standard to the wells was carried out after the addition of the antibody mix. After the incubation period, the unrestrained substance was discarded and the wells were washed. The added TMB (3,3′,5,5′-tetramethylbenzidine) substrate was prompted by Horseradish peroxidase (HRP) and blue coloration appeared. This reaction was stopped with the addition of stop solution to complete the change in colour from blue to yellow. The created signals were equivalent to the quantity of bound analyte and Robonik P2000 ELISA reader was used to record the intensity at a certain wavelength (450 nm). The concentrations of the screened compounds were calculated through the plotted curve.

VEGFR-2 = VEGFR-2 (Homo sapiens, UniProt P35968); experiment: biochemical
VEGFR-2, sequence (P35968 20-1356): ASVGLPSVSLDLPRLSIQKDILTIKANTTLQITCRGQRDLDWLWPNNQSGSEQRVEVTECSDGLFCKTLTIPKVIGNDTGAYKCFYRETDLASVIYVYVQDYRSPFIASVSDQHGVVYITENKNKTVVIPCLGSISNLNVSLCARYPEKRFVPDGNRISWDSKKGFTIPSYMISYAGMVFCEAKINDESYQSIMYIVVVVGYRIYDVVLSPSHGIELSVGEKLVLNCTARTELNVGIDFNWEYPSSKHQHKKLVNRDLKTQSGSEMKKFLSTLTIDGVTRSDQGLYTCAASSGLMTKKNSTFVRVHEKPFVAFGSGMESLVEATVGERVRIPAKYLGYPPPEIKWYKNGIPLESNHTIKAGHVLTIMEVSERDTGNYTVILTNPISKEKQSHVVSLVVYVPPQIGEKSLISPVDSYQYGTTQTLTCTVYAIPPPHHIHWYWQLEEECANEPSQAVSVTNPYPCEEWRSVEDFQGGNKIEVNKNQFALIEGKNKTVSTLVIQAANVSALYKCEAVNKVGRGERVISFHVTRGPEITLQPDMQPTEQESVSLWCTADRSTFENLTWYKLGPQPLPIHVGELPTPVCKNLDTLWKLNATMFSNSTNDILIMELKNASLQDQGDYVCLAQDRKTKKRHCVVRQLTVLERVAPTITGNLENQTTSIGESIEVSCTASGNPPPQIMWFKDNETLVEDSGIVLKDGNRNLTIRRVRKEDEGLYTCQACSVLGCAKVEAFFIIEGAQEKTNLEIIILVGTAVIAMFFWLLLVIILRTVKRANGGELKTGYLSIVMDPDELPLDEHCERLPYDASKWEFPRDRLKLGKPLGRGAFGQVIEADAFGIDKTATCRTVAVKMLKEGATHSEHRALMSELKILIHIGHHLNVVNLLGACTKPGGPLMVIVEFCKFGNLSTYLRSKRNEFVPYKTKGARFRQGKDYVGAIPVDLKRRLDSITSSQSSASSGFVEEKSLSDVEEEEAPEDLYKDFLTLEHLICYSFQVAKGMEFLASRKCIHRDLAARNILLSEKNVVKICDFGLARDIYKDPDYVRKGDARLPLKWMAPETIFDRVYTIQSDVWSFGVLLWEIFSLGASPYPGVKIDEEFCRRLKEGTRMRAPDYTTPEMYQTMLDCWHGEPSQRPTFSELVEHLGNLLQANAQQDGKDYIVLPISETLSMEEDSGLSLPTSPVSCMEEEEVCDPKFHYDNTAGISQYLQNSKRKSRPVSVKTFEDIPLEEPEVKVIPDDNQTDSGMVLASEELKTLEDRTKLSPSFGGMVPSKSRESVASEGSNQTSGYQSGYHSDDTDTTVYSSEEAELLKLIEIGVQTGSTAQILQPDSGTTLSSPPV
Procedure: The cells were harvested, and the homogenates were prepared in saline using a tight pestle homogenizer until complete cell disruption. The kit used a double-antibody sandwich enzyme-linked immunosorbent assay (ELISA) to determine the level of human VEGFR-2 in samples. A monoclonal antibody for VEGFR-2 was pre-coated onto 96-well plates. The test samples were added to the wells and a biotinylated detection polyclonal antibody from goat specific for VEGFR-2 was added, subsequently followed by washing with PBS buffer. Avidin–Biotin–Peroxidase complex was added, and the unbound conjugates were washed away with PBS buffer. HRP substrate TMB was used to visualize HRP enzymatic reaction. TMB was catalysed by HRP to produce a blue colour product that changed into yellow after the addition of acidic stop solution. The density of yellow colour is proportional to the human VEGFR-2 amount of the sample captured in the plate. The chroma of colour and the concentration of the human VEGFR-2 of the samples were positively correlated and the optical density was determined at 450 nm. The level of human VEGFR-2 in samples was calculated (pg/mL) as duplicate determinations from the standard curve. The % inhibition was calculated in comparison to control untreated cells.

[8] = tested on: human colon (Caco-2) cancer cell line; experiment: MTT cytotoxicity assay, Caco-2
Procedure: as §2

Cytochrome-c = Cytochrome-c ELISA in Paca-2; format: cell-based, human; conditions: Paca-2, 24 h at IC50 (10.7 μM); control 0.123 ng/mL
Procedure: Cytochrome-c specific antibodies were precoated onto 96-well plates. Cytochrome-c were analysed by enzyme-linked immunosorbent assays (ELISAs) using commercial kits (ab119521; Abcam, Cambridge, MA, USA). The optimal dilutions were determined and ELISAs were performed according to the manufacturer’s instructions.

Compound: 4-Phenyl-7-((1-(2,3,4-tri-O-acetyl-β-D-xylopyranosyl)-2H-tetrazol-5-yl)methoxy)-2H-chromen-2-one [Compound 6]
% Inhibition A-375 ([1]; A-375, at 100 µM, MTT): 45.8% | % Inhibition PC-3 ([2]; PC-3, at 100 µM, MTT): 9.1% | % Inhibition Mel-501 ([3]; Mel-501, at 100 µM, MTT): 71% | IC50 ([3]; Mel-501, MTT, three independent determinations): 80.4 ± 2.1 µM | % Inhibition Paca-2 ([4]; Paca-2, at 100 µM, MTT): 72.1% | IC50 ([4]; read-out: IC50 (Mean ± SEM) Paca-2, Paca-2, MTT, 100 to 0.78 μM, three independent determinations): 60 ± 1.4 µM | % Inhibition Caco-2 [5]: -

IC50 (EGFR): 0.09 ± 0.21 µM | IC50 (CDK-2/cyclin A2): 0.19 ± 0.05 µM | IC50 (VEGFR-2): 0.86 ± 0.25 µM
Compound: O=c1cc(-c2ccccc2)c2ccc(OCc3nnn(CC(O)CO)n3)cc2o1 (centres unmarked) [Compound 10, 7-((2-(2,3-Dihydroxypropyl)-2H-tetrazol-5-yl)methoxy)-4-phenyl-2H-chromen-2-one]
inhibition at 100 µM ([1]; Homo sapiens, A-375, read-out: % Inhibition A-375): 98.2% | IC50 ([1]; Homo sapiens, A-375, read-out: IC50 (Mean ± SEM) A-375): 10.9 ± 0.1 µM | inhibition at 100 µM ([2]; Homo sapiens, read-out: % Inhibition PC-3): 99.2% | IC50 ([2]; Homo sapiens, read-out: IC50 (Mean ± SEM) PC-3): 25.4 ± 0.5 µM | elevation of caspase-7 protein level (Caspase-7; versus control): 4.3 fold | caspase-7 protein level in treated cells (Caspase-7; control 0.555 ng/mL): 2.363 ng/mL | increase of percentage of the cells at S phase compared to the control (Paca-2 cells [6]): 1.3 folds | increase of pre-G1 phase cells percentage compared to the control (Paca-2 cells [6]): 15.7 folds | inhibition at 100 µM ([3]; Homo sapiens, read-out: % Inhibition Mel-501): 95.8% | IC50 ([3]; Homo sapiens): 8.8 ± 0.2 µM | late/secondary cellular apoptosis (PI / Annexin V-FITC, upper right quadrant) (Paca-2 cells [7]): 15.55% | inhibition at 100 µM ([4]; Homo sapiens, PaCa-2, read-out: % Inhibition Paca-2): 99.9% | IC50 ([4]; Homo sapiens, PaCa-2, read-out: IC50 (Mean ± SEM) Paca-2): 10.7 ± 0.4 µM | PD-1 level in treated cells (PD-1): 91.4 pg/mL | upregulation of caspase-3 protein level (Caspase-3; versus control): 2.8 fold | caspase-3 protein level in treated cells (Caspase-3; control 95.04 Pg/mL): 266.8 pg/mL | % Inhibition Caco-2 ([8]; Caco-2, at 100 µM, MTT, (-) No activity detected): 99.6% | IC50 ([8]; read-out: IC50 (Mean ± SEM) Caco-2, Caco-2, MTT, three independent determinations): 31.9 ± 0.7 µM | cytochrome-c release into the cytosol of treated cells (Cytochrome-c): 0.395 ng/mL
